Patent US20250319067A1, “Improved Pharmacokinetics of Tryptamine Prodrugs” (Reunion Neuroscience, Inc., priority 2023, published 2025)

What was measured:
[1] = Metabolite profiling in monkey plasma after SC RE104; type: in vivo, cynomolgus monkey; settings: pooled plasma 0 to 12 hours post dose, SC 0.5 mg/kg RE104
Text: Blood samples were centrifuged to obtain plasma.

[2] = Prodrug cleavage in human plasma; type: in vitro ADME; settings: human plasma (data not shown)
Protocol: Mean values from 3 replicate assays are reported. See the Supplemental Methods for additional details.
Triplicate aliquots (50 μL) of each spiked plasma solution were immediately added to 200 μL of ice-cold methanol/acetonitrile solution (50:50 v/v) containing the internal standards to generate time zero samples. Spiked plasma solutions were incubated at 37° C. in an orbital shaker set to 75 rpm, and 50-μL samples were taken in triplicate after 30 minutes and 1, 2, and 4 hours of incubation. Each sample was immediately added to 200 μL ofice-cold methanol/acetonitrile solution containing the internal standard(s) to terminate the reaction. Samples were mixed by vortex and then stored at −80° C. until analysis.
Calibration standards were prepared in plasma for each species and analyzed in batches by LC-MS/MS. Sample batches consisted of 3 replicates of a system suitability standard (containing the analyte and internal standard), the appropriate calibration standards in ascending order including a blank sample without internal standard, a zero sample (with internal standard), and at least 6 nonzero standards and the assay samples, followed by the 3 replicates of the system suitability sample.

male Wistar rats = assay: Forced swim test (FST) in rats; type: in vivo, rat
humans = settings: humans; cited from earlier work

For CC(C)N(CCc1c[nH]c2cccc(OC3OC(C(=O)O)C(O)C(O)C3O)c12)C(C)C (centres unmarked) [glucuronidation of 4-OH-DiPT], the “share of the total peak area” value [1] was 24.5%.

For CN(C)CCc1c[nH]c2cccc(OC(=O)CCCC(=O)O)c12.Cl [RE109, psilocin-4-glutarate, reference compound], the cleavage to psilocin [2] was “rapid cleavage to psilocin”, the “climbing as share of escape behaviors” value (male Wistar rats; rat FST, day 28) was 26% and the “swimming as share of escape behaviors” value (male Wistar rats; rat FST, day 28) was 74%. For the same compound, the “mean swimming time relative to vehicle” value (male Wistar rats; rat FST, single 1 mg/kg dose) was “significantly increased”, the “mean immobility time vs vehicle” value (male Wistar rats; rat FST, single 1 mg/kg dose, day 14 and 28) was “significant decrease” and the “duration of distinctive serotonergic behaviors” value (male Wistar rats; rat, dosing day, 1 mg/kg) was “approximately 3 hours”.

In the case of CN(C)CCc1c[nH]c2cccc(OP(=O)(O)O)c12 [psilocybin], the “duration of psychedelic state / effects” value (humans) is listed as 6 to 8 h.
